Data reported in US8099262B2, “Estimation of clinical cut-offs” (priority 2004, dated 2012).
“Also recorded” adds a separate entry of the source. Read-outs that look alike come from different tables or passages of the source.

Key:
HIV [1] = experiment: Logistic regression model of probability of success/failure as a function of baseline fold change resistance (clinical cut-offs); type: in vivo
From the text: In such a method, Prob of success is preferably calculated by performing a logistic regression analysis using data from a clinical response dataset, wherein Prob of success is modelled according to the following equation: […]
(§1) The clinical outcome results (drop in viral load and response rate) were modelled as a function of baseline fold change (FC) as determined by virtual phenotype (see WO01/79540 and WO02/33402; also http://www.vircolab.com). The models applied were linear regression, logistic regression, and a classification tree. These models also took into account effects of the concomitant HIV drugs (PSS), baseline viral load (Baseline Log(V1)i) and, optionally, treatment history in order to avoid bias introduced by imbalances of important characteristics. From the models, a prediction of clinical outcome could be made at different levels of the baseline fold change resistance.
In the logistic regression, the proposed equation was the following: […]
However, by binning the viral load into successes and failures, part of the information of the continuous variable viral load is lost. Estimates are also corrected for covariates as for linear regression.
(§2) The maximum effect was defined as the treatment effect at fold change 1, and the minimum effect was defined as the treatment effect at a very high fold change (i.e. when the curve reached a plateau). The effect range was then the difference between the maximum effect and the minimum effect.
The lower and higher cutoffs are defined as the fold change associated with an expected 20% and 80% decrease respectively of the reference activity of the drug within the regimen.

HIV [2] = conditions: Definition 3
From the text: This methodology constructs tree-structured rules in order to classify patients as successes (undetectable pathogen load after treatment) and failures. […] Imbalances for such parameters may therefore influence the decision taken for a certain parameter.
The classification tree poses queries, in which the answer to each query results in either the left or the right branch of the tree being taken at each stage. […] If yes, the left branch is taken, if no the right branch is taken. As with the methods of the aspects of the invention described previously, the other factors queried include the log baseline pathogen load and the phenotypic sensitivity score. The numbers at the termini of the final branches represent the response rate (1=100% response).
The clinical cut-off is chosen as the fold change that makes the difference between the two groups as large as possible.
In the classification trees model, tree-structured rules were constructed in order to classify patients in successes (undetectable viral load after treatment) and failures. The same parameters as for the other techniques were considered.
This implies that imbalances for other parameters may influence the decision taken for a certain parameter.
Definition 3 was a variant of definition 2.
Using definition 3, breakpoints determined by classification trees are applicable only to a subset of patients unless fold change is selected at the first tree node.

HIV [3] = type: in vivo; parameters: key to effect range (difference between maximum and minimum effect, log viral load): log viral load drop; max effect (FC 1) minus min effect (plateau); Linear Regression Higher CO / Linear Regression Lower CO: unit not given here
From the text: Databases of studies for patients with tenofovir containing regimens and consisting of patient baseline demographic characteristics, clinical outcome results with viral load and resistance data (Fold change), were retrieved and remapped according to a common structure allowing a meta-analysis. The structure consisted of baseline sequence, viral load data set, viral load measurements and sampling dates (for example viral load within 3 months of starting new regimen and viral load assessment 8 and/or 24 weeks after beginning new regimen), CD4+ data set which contains CD4+ counts and sampling dates, resistance data set containing the fold changes to different antivirals and sampling dates; patient data set with patient information such as age, gender, race, treatment history; treatment data set with drug regimens, start and stop dates, doses, formulations, frequency of intake, regimen changes after resistance tests. The structure of such a clinical data base can be seen in FIG. 1a.
The viral load response data includes censored (<400 copies/ml) values. Parameters of the underlying uncensored distribution were estimated by maximum likelihood estimation in SAS (proc lifereg). The viral load response data are corrected for baseline viral load and cPSS.
as §1, with “The” for “The clinical outcome results (drop in viral load and response rate) were modelled as a function of baseline fold change (FC) as determined by virtual phenotype (see WO01/79540 and WO02/33402; also http://www.vircolab.com). The”
In the linear regression model, the proposed equation was the following: LogVL dropi=β0+β1*Baseline Log(V1)i+β2*PSSi+β3*(1/FC)i+ξi where i represented the patient, β0 the intercept, β1, β2 and β3 coefficients indicated the increase in log viral load drop per unit increase of respectively the baseline log VL, the number of sensitive drugs in the background regimen and the inverse of the baseline fold change. ξi was a random error term indicating the deviation of the patient from the value predicted by the model. Interactions between all the factors were evaluated and other baseline characteristics, i.e treatment history, were added if relevant.
When viral load results under the detection limits are obtained, biases could be introduced if the detection limit values are considered when calculating viral load drops and using those in the linear regression model. To avoid this, censoring needed to be taken into account and therefore the PROC LIFEREG facility in the SAS package was employed.
Clinical responses were predicted in the models developed in previous step 2. […] In order to determine the fold changes at which clinically relevant diminished clinical responses can be observed, three definitions of clinical cut-offs were considered:
as §2

[4] = Definition 2, Subgroup 1: PSS = 2, baseline Log (VL) = 4
[5] = Definition 2, Subgroup 2: PSS = 0, baseline Log (VL) = 4
[6] = Definition 2, Subgroup 3: PSS = 2, baseline Log (VL) = 5
[7] = Definition 3, Subgroup 1: PSS = 2, baseline Log (VL) = 4
[8] = Definition 3, Subgroup 2: PSS = 0, baseline Log (VL) = 4
[9] = Definition 3, Subgroup 3: PSS = 2, baseline Log (VL) = 5
[10] = Definition 1, Subgroup 2: PSS = 0, baseline Log (VL) = 4
[11] = Definition 1, Subgroup 3: PSS = 2, baseline Log (VL) = 5
[12] = Definition 2, Overall (whole population)
[13] = Definition 2, two active drugs besides the drug, baseline Log(VL) of 4
[14] = preliminary linear regression analysis, virologic response at 8 weeks

CC(C)OC(=O)OCOP(=O)(CO[C@H](C)Cn1cnc2c(N)ncnc21)OCOC(=O)OC(C)C.O=C(O)/C=C/C(=O)O [TDF]
Logistic Regression Higher CO (HIV [1]; [4]): 3.81
Logistic Regression Lower CO (HIV [1]; [4]): 1.2
Logistic Regression Higher CO (HIV [1]; [5]): 3.36
Logistic Regression Lower CO (HIV [1]; [5]): 1.16
Logistic Regression Higher CO (HIV [1]; [6]): 3.4
Logistic Regression Lower CO (HIV [1]; [6]): 1.17
Logistic Regression Lower CO (HIV [1]; Definition 3, Overall): 1.2
Logistic Regression Higher CO (HIV [1]; [7]): 3.81
Logistic Regression Lower CO (HIV [1]; [7]): 1.2
Logistic Regression Higher CO (HIV [1]; [8]): 3.36
Logistic Regression Lower CO (HIV [1]; [8]): 1.2
Logistic Regression Higher CO (HIV [1]; [9]): 3.4
Logistic Regression Lower CO (HIV [1]; [9]): 1.2
Classification Tree Lower CO (HIV [2]; Overall): 1.15
Classification Tree Lower CO (HIV [2]; Subgroup 1: PSS = 2, baseline Log (VL) = 4): 1.15
Classification Tree Lower CO (HIV [2]; Subgroup 2: PSS = 0, baseline Log (VL) = 4): 1.15
Classification Tree Lower CO (HIV [2]; Subgroup 3: PSS = 2, baseline Log (VL) = 5): 1.15
Linear Regression Lower CO (clinical cut-off, fold change) (HIV [3]; Definition 1, Subgroup 1: PSS = 2, baseline Log (VL) = 4): 3.73
Linear Regression Higher CO (clinical cut-off, fold change) (HIV [3]; Definition 1, Subgroup 1: PSS = 2, baseline Log (VL) = 4, listed as Tenofovir): >assay
Linear Regression Higher CO (clinical cut-off, fold change) (HIV [3]; Definition 1, Subgroup 1: PSS = 2, baseline Log (VL) = 4, listed as tenofovir): No higher cut-off could be derived; also recorded: >assay
Linear Regression Higher CO (HIV [3]; [10]): 3.8
Linear Regression Lower CO (HIV [3]; [10]): 1.68
Linear Regression Higher CO (HIV [3]; [11]): >assay
Linear Regression Lower CO (HIV [3]; [11]): >assay
Linear Regression Higher CO (HIV [3]; [12]): 5
Linear Regression Lower CO (HIV [3]; [12]): 1.25
Linear Regression Higher CO (HIV [3]; [4]): 5
Linear Regression Lower CO (HIV [3]; [4]): 1.25
Linear Regression Higher CO (HIV [3]; [5]): 5
Linear Regression Lower CO (HIV [3]; [5]): 1.25
Linear Regression Higher CO (HIV [3]; [6]): 5
Linear Regression Lower CO (HIV [3]; [6]): 1.25
drop in log viral load at fold change 1 (HIV [3]; [13]): −1.48
drop in log viral load at the maximum (asymptotic) fold change (HIV [3]; [13]): −0.28
effect range (difference between maximum and minimum effect, log viral load) (HIV [3]; [13]): 1.2
Linear Regression Higher CO (HIV [3]; Definition 3, Overall): 5
Linear Regression Lower CO (HIV [3]; Definition 3, Overall): 1.1
Linear Regression Higher CO (HIV [3]; [7]): 5
Linear Regression Lower CO (HIV [3]; [7]): 1.1
Linear Regression Higher CO (HIV [3]; [8]): 5
Linear Regression Lower CO (HIV [3]; [8]): 1.1
Linear Regression Higher CO (HIV [3]; [9]): 5
Linear Regression Lower CO (HIV [3]; [9]): 1.1
VIROLOGIC RESPONSE Baseline FC for 80% REDUCTION of response (upper cutoff) (HIV [3]; preliminary linear regression analysis, definition 2): 2.5
VIROLOGIC RESPONSE 20% REDUCTION (fold change, preliminary VirtualPhenotype Clinical Cutoff) (HIV [3]; [14]): 1.2
VIROLOGIC RESPONSE 80% REDUCTION (fold change, preliminary VirtualPhenotype Clinical Cutoff) (HIV [3]; [14]): 2.5
lower cut-off derived from the Table (HIV [3]; summary over models, 2 active drugs besides the drug, baseline log(VL) of 4): 1.2
